From patent publication US8546352B2, “Pharmacological preparation for topical use containing N-palmitoyl-vanillamide” (Epitech Group S.r.l., priority 2010, dated 2013) come the findings set out here.

Data set [1] has as its system eye-wiping movements in mice. The conditions noted are these: mouse.
In data set [2] the test system is capsaicin-induced eye-wiping movements in mice. As to the kind of experiment: Eye-wiping assay in mice, effect on capsaicin-induced wiping. Format: in vivo, mouse. The conditions noted are these: for Capsaicin-induced wiping movements after Palvanil: same eye.
For data set [3], the target named is T1, recombinant human TRPV1 (HEK-293 cells) (Homo sapiens, UniProt Q8NER1).
T1 construct: expressed in transfected cells
Kind of data set: TRPV1-mediated elevation of intracellular [Ca2+] (agonist activity). It is filed as cell-based.

Data set [4] concerns the target T1, recombinant human TRPV1 (HEK-293 cells). As to the kind of experiment: Desensitization of capsaicin (10 nM)-induced TRPV1-mediated elevation of intracellular [Ca2+]. Format: cell-based.
The target is the same in data set [5]. Kind of data set: Desensitization of anandamide/low pH-induced TRPV1-mediated elevation of intracellular [Ca2+]. Format: cell-based. The conditions noted are these: for IC50: read-out: IC50, desensitization of anandamide effect.

T1 sequence (Q8NER1 whole entry): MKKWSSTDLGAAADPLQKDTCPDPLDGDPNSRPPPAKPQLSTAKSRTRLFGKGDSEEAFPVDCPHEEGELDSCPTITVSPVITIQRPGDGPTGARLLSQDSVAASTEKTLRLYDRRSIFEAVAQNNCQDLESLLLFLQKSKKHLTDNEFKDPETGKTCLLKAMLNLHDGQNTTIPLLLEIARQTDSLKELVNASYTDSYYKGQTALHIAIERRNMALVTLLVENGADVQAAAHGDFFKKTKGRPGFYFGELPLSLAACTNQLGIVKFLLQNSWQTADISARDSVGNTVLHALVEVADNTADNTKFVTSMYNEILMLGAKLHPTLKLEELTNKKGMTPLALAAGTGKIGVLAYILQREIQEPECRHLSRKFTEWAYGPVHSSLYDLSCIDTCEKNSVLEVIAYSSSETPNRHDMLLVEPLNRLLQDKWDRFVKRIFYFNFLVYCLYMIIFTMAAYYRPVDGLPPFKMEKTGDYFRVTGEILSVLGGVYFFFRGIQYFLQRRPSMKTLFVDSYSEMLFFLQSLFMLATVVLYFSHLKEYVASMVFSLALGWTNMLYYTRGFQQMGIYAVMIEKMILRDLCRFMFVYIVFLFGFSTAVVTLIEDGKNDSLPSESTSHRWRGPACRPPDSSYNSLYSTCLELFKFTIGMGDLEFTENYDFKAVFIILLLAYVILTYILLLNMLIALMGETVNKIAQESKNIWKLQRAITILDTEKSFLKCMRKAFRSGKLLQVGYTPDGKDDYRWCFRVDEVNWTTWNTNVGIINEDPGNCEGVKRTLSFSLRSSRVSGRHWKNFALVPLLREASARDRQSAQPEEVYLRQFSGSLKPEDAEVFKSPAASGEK

As for `C=C(C)[C@]12C[C@@H](C)[C@@]34O[C@](Cc5ccccc5)(O[C@@H]1[C@@H]3C=C(COC(=O)Cc1cc(I)c(O)c(OC)c1)C[C@]1(O)C(=O)C(C)=C[C@@H]41)O2` [I-RTX, 5′-iodo-resiniferatoxin, reference compound], in data set [1] (in vivo), the “Eye-wiping reflexes per se” value is “did not cause any reflexes per se”. Moreover, the “Effect of I-RTX pre-treatment on Palvanil's reduction of capsaicin-induced wiping” value in data set [2] (mouse, in vivo) is recorded as “completely reverted”.

Take `CCCCCCCCCCCCCCCC(=O)NCc1ccc(O)c(OC)c1` [Palvanil, N-(4-hydroxy-3-methoxybenzyl)palmitoylamide]: in data set [3] (HEK-293-TRPV1 cells, Fluo-4, read-out: EC50, increase in intracellular calcium), the EC50 was found to be 0.65 ± 0.04 nM. Besides, the “Pre-incubation time at which desensitizing effect reached a maximum” value in data set [4] (2 nM Palvanil, 10 nM capsaicin stimulation) was approximately 50 min. The IC50 worked out at 0.81 ± 0.07 nM in data set [4] (read-out: IC50, desensitization of TRPV1 to the effect of capsaicin, 10 nM capsaicin, compound given 5 min before); 0.3 ± 0.01 nM in data set [5] (0.5 μM AEA, acid pH (6.5)); 0.9 ± 0.1 nM in data set [5] (0.5 μM AEA, physiological pH (7.4)); 0.5 ± 0.02 nM in data set [5] (anandamide 0.25 mM (so in the source), acid pH). Also, the “Capsaicin-induced wiping movements after Palvanil” value in data set [2] (Palvanil 10 μg/ml, 1 hour before capsaicin 10 μg/ml) is 8.2±0.9 wiping movements; in data set [2] (Palvanil 10 μg/ml, 3 hours before capsaicin 10 μg/ml) it was 7.0±0.9 wiping movements; in data set [2] (Palvanil 30 μg/ml, 1 hour before capsaicin 10 μg/ml), 6.7±0.7 wiping movements; in data set [2] (Palvanil 30 μg/ml, 3 hours before capsaicin 10 μg/ml), 6.0±0.8 wiping movements. Moreover, the “Inhibitory effect on anandamide response” value in data set [5] (1 nM compound, 0.5 μM AEA, at both pH values) is reported as more than 50%. Also, the “Fold more potent at the lower pH” value in data set [5] (0.5 μM AEA, pH 6.5 vs pH 7.4) was 90 fold.

For the compound `COc1cc(CNC(=O)CCCC/C=C/C(C)C)ccc1O` [capsaicin, reference compound], the “Wiping movements monitored within 30 seconds” value in data set [1] (capsaicin solution 10 μg/ml into the eye) is on record as 12±0.9 wiping movements. For the same compound, the “Speed of TRPV1 activation (time to achieve 90% of total TRPV1 mediated calcium influx)” value in data set [3] (different concentrations, greatest difference at 1 μM, capsaicin vs Palvanil) was “always significantly faster”. Moreover, the “Desensitizing effect at different pre-incubation times, compared with Palvanil” value in data set [4] (10 nM capsaicin pre-incubation, 10 nM capsaicin stimulation) is “significantly less pronounced desensitizing effect”.

What is called EC50 is the concentration at which the effect is half-maximal. Broadly, the IC50 is the midpoint of a concentration-inhibition curve.
